How the values were obtained:
[1] = system: E. coli BL21(DE3)/pET30a-IMP-1; experiment: Carbapenem sensitivity (MIC) of E. coli expressing IMP-1; type: cell-based; settings: for fold reduced sensitivity resulting from basal (uninduced) IMP-1 expression: pET30a-IMP-1 introduced into E. coli BL21(DE3)
From the text: A laboratory strain of E.coli engineered to express IMP-1 was used to evaluate the ability of succinate derivatives to reverse metallo-β-lactamase-mediated carbapenem resistance in bacteria. Native IMP-1, which included the N-terminal periplasmic signal sequence, was PCR amplified from […] isolated from a carbapenem resistant P. aeruginosa clinical isolate, CL56673, and cloned into the pET30a vector. […] To evaluate IMP-1 inhibitors, an overnight culture of E. coli BL2(DE3)/pET30a-IMP-1, grown 35° C. in LB broth (Difco) or Mueller Hinton broth (BBL) supplemented with kanamycin ([…]), was diluted to a final concentration of ˜10^5 cells/ml in Mueller Hinton broth (BBL) containing a subinhibitory concentration (0.25×MIC) of the carbapenem, (1S,5R,6S)-1-methyl-2-{7-[4-(aminocarbonylmethyl)-1,4-diazoniabicyclo(2.2.2)octan-1-yl]methyl-fluoren-9-on-3-yl}-6-(1R-hydroxyethyl)carbapen-2-em-3-carboxylate chloride. Various concentrations of IMP-1 inhibitor were added to the bacterial growth medium and their capacity to effect a four-fold or greater increase in sensitivity to the carbapenem was monitored.

E. coli BL21(DE3) = experiment: Carbapenem MIC in E. coli without IMP-1 expression; type: cell-based; settings: without expression of IMP-1

Compound	fold reduced sensitivity resulting from basal (uninduced) IMP-1 expression [1] [fold]	minimum inhibitory concentration (MIC) (E. coli BL21(DE3)) [µg/mL]	minimum inhibitory concentration (MIC) ([1]; with expression of IMP-1) [µg/mL]
C[C@@H](O)[C@H]1C(=O)N2C(C(=O)O)=C(S[C@@H]3CN[C@H](C(=O)N(C)C)C3)[C@H](C)[C@H]12 [meropenem, reference compound]	64	–	–
(1S,5R,6S)-1-methyl-2-{7-[4-(aminocarbonylmethyl)-1,4-diazoniabicyclo(2.2.2)octan-1-yl]methyl-fluoren-9-on-3-yl}-6-(1R-hydroxyethyl)-carbapen-2-em-3-carboxylate chloride	500	0.06 to 0.12	16 to 32
C[C@@H](O)[C@H]1C(=O)N2C(C(=O)O)=C(SCCN=CN)C[C@H]12 [impenem, imipenem, reference compound]	4	–	–
